Here are results for 4 sequences from patent publication US7348401B2, “Peptides that inhibit complement activation” (priority 2003, dated 2008).

Where no end group is shown, it is not given here.

One test relates to Human mesangial cells. Description: Inhibition of complement mediated cell death, in vitro autoimmune glomerulonephritis model. The test is classed as cell-based. The note with it: 250 μM of peptide, 48 hours. The protocol:
The peptides were evaluated for their ability to inhibit complement mediated cell death in an in vitro autoimmune glomerulonephritis model. Human mesangial cells were cultured to approximately 75% confluency and then treated for one hour at 37° C. with phosphatidyl inositol-phospholipase C to remove GPI-anchored complement regulatory proteins. Following enzyme treatment, the cells were washed and equilibrated in GSBM growth medium supplemented with 2.5% fetal bovine serum for one hour at 37° C. The cells were then incubated in pooled human plasma supplemented with 100 μg/mL of heat aggregated human IVIG (generated by heating at 63° C. for 30 minutes) either in the presence of absence of various concentrations of peptides for 48 hours at 37° C. The source of complement was replenished every 12 hours during the incubation by adding 25% of the original volume of fresh plasma along with heat aggregated IVIG and peptides so that the same final concentrations were maintained. Following the 48 hour incubation, the cells were stained with the commercial Live/Dead Viability kit (Molecular Probes) and the relative fluorescence was measured to determine the extent of cell death. The percent of cell death was calculated versus a control sample in which heat-inactivated plasma, (heated to 56° C. for 30 minutes) as a means of inactivating complement components, was used.

The test system of test [1] is classical pathway; antibody sensitized sheep erythrocyte cells. Put plainly: Classical pathway hemolytic assay (RBC hemolysis assay). Conditions: for inhibition of hemolysis: 100 uM peptide. Format: cell-based, human. The protocol: Inhibition of the classical pathway by the peptides was measured using a standard hemolysis assay, which monitors the lysis of sheep erythrocytes as a result of terminal complex formation (see e.g. FIG. 1, FIG. 10). Various concentrations of peptide were incubated with 50 μL pooled human plasma (diluted 1:30 with GVB^++), 5×10^7 antibody sensitized sheep erythrocyte cells, and GVB^++ buffer to a final volume of 200 μL. The reaction was incubated at 37° C. for one hour and centrifuged. The percentage of lysis was determined by measuring the optical density of the supernatant at 414 nm. 100% lysis was determined by the optical density at 414 nm of the supernatant from a control sample consisting of 5×10^7 antibody sensitized sheep erythrocyte cells in water. The percent inhibition was calculated as the (% lysisno peptide−% lysispeptide)/% lysisno peptide×100.

The next test deals with T1, complement component C5 (Homo sapiens, UniProt P01031).
T1 construct: purchased Advanced Research Technologies
Description: Phage clone binding to C5 and free-peptide competition assay. Conditions: for competition among phage clones and free peptides for binding to C5: free peptide at 50, 10 and 1 μM; for specific binding to complement component C5: phage panning / phage clone binding. The protocol:
Peptides were identified by panning an M13 phage library (New England Biolabs), a random 12mer peptide library with a diversity of 10^11 different peptide structures, against complement component C5. The phage library was panned against C5 using three different methods for immobilizing C5. The binding reactions all contained 2×10^11 phage particles in PBS containing 0.5% BSA and 0.3% Tween 20. The binding reactions were carried out at 25° C. for two hours and then unbound phage were removed by washing 5 times with PBS containing 0.5% BSA and 0.3% Tween20. The phage were eluted by acid (0.2 M Glycine pH 2.2, 1 mg/mL BSA) and immediately neutralized with 1 M Tris pH 9.1. Following elution, recovered phage were amplified in ER2738 E. coli (NEB) and subjected to two more rounds of panning as described above. The methods for immobilizing C5 include directly coating C5 (Advanced Research Technologies) to the surface (1 μg/mL), capturing biotinylated C5 (1 μg/mL) on a neutravidin (Pierce) coated surface, and capturing biotinylated C5a (1 μg/mL) on a neutravidin (Pierce) coated surface. C5 and C5a (Quidel) were biotinylated by incubating with 10 fold molar excess of Sulfo-NHS-LC-LC-Biotin for 2 hours at room temperature at pH 7.4 and then removing excess biotin by gel filtration. A negative selection was performed in the final round against neutravidin for the two latter screening methods. DNA from twenty randomly selected clones from each of the three final libraries was isolated and sequenced.
The binding sites of the peptides were further probed via C5-binding competition assays. Increasing concentrations of each phage clone were incubated for 2 hours with 200 ng of biotinylated C5 in PBS containing 0.5% BSA. The phage bound C5 complex was captured on a neutravidin coated microplate for 20 minutes at room temperature and then washed with PBS containing 0.5% BSA. A peroxidase labeled anti-M13 antibody (Pharmacia) was used to detect the amount of phage bound to C5 with OPD substrate. Competition assays with free peptide were carried out in a similar manner except that one concentration of each phage clone was used which was determined as the concentration giving approximately 50% binding in the previous titration. Free peptide was added to the phage clones at concentrations of 50, 10 and 1 μM and incubated with the biotinylated C5 and the assay was carried out as above.

Test [2] relates to complement system activated by zymosan. Description: Alternative activation pathway zymosan assay (ELISA for C5a, SC5b-9, C3a). Format: biochemical. The note with it: 2 mg/mL zymosan, human plasma. The protocol: The peptides were evaluated for involvement in activation of the complement system by the presence of zymosan. Zymosan, or yeast cell wall, has largely been described as an alternative pathway activator. In addition, there are sugars on the surface of the yeast cell wall which are capable of activating the lectin pathway. Therefore, zymosan can be considered as a general complement activator.
Varying concentrations of peptide were incubated with 2 mg/mL zymosan in pooled human plasma. The reactions were incubated at 37° C. for one hour and then stopped by the addition of EDTA. The samples were centrifuged, the plasma removed, and analyzed with commercially available ELISA's for the production of C5a (Pharmingen), SC5b-9 (Quidel), and C3a (Quidel).

Another test deals with alternative pathway. Description: Alternative activation pathway C.A. membrane assay (ELISA for C5a, SC5b-9, C3a). Format: biochemical. Conditions: cellulose acetate hemodialysis membrane, human plasma. As to the method: Inhibition of the alternative pathway by the peptides was determined by incubating pooled human plasma in the presence and absence of various concentrations of peptide with 20 mg of cellulose acetate hemodialysis membrane at 37° C. for one hour. The reaction was stopped with EDTA and then the samples were analyzed with commercially available ELISA's for the production of C5a (Pharmingen), SC5b-9 (Quidel), and C3a (Quidel).
A general note: In an ELISA, binding on a coated surface is turned into a signal by an enzyme label.

The subject of the next test is classical pathway. Put plainly: Classical pathway component assay (immune complex, ELISA for C5a, SC5b-9, C3a). The test is classed as biochemical, human. The note with it: classical pathway, immune complex, human plasma. The protocol: The inhibition of the classical pathway by the peptides was measured by incubating human plasma in the presence and absence of peptides with an immune complex generated on a surface and then monitoring for the production of complement components C5a, SC5b-9, and C3a. To generate the immune complex, a 10 mg/mL solution of BSA in PBS was incubated at 56° C. for 30 minutes and then used to coat the surface of a microplate by diluting to 50 μg/mL at pH 9.6 and incubating for one hour at 37° C. The plate was washed and then incubated with 18 μg/mL mouse anti-BSA IgG2a (Sigma) for one hour at 37° C. Pooled human plasma with and without various concentrations of peptide were incubated for 30 minutes at 37° C. with the generated immune complex and the reaction was stopped with the addition of EDTA. The plasma samples were then analyzed with commercially available ELISA's for the production of C5a (Pharmingen), SC5b-9 (Quidel), and C3a (Quidel).

T1 sequence (P01031 19-1676): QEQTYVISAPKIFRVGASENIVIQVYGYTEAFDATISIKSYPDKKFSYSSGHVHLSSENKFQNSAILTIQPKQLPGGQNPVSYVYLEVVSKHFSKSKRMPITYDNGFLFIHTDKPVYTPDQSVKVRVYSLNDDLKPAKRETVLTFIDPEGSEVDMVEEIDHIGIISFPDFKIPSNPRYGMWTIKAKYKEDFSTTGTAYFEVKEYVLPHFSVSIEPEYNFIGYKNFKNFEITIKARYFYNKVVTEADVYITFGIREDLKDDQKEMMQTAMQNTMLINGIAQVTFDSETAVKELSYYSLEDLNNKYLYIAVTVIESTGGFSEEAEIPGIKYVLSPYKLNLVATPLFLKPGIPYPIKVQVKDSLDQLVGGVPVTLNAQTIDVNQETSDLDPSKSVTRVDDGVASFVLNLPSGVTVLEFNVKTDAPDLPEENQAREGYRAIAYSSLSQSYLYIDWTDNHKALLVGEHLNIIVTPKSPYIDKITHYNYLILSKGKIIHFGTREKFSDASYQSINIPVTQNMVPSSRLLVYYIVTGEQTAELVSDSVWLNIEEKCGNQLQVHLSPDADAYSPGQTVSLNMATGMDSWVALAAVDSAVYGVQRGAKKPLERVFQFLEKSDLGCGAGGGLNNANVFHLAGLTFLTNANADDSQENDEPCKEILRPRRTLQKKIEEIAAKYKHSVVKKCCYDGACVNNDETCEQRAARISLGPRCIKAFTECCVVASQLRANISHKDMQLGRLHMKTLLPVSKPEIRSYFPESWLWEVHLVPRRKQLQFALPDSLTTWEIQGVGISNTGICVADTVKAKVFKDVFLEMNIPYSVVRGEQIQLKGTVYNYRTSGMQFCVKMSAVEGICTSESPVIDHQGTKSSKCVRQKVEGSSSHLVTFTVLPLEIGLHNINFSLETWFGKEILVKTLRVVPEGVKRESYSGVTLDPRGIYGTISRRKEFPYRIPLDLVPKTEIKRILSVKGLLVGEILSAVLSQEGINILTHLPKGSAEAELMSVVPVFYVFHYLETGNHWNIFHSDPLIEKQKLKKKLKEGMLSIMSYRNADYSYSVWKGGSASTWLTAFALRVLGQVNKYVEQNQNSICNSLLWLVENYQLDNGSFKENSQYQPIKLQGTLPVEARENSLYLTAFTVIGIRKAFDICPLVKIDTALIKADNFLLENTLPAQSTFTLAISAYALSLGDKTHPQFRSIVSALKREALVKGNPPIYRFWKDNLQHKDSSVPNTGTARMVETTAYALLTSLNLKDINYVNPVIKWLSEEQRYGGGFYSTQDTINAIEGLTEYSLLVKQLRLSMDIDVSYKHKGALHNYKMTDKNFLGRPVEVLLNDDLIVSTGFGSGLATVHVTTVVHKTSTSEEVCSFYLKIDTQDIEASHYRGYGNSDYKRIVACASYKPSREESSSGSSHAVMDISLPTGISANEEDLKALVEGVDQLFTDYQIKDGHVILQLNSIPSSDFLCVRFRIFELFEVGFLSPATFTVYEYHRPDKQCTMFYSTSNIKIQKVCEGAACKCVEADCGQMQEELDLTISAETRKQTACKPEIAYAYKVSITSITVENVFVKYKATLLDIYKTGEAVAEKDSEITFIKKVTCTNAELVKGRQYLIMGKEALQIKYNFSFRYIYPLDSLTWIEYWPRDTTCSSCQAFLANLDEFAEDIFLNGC

As to TEEVRWEFPL [Peptide 117], the “inhibition of complement mediated cell death” value in the test on Human mesangial cells is reported as “up to 69%”. Further, the “inhibitory activity in RBC hemolysis assay compared with parent peptide” value in test [1] is listed as “enhanced the levels of inhibitory activity”.

In the case of DSTWTNFRWEFY [Peptide 8], on complement component C5, the “competition among phage clones and free peptides for binding to C5” value is reported as “significant competition”; the “specific binding to complement component C5” value (“specific binding” for short) was “specifically bound complement component C5”. Besides, the inhibition of hemolysis entry in test [1] is reported as “significant inhibition of hemolysis”. Also, in test [2], the C3a generation entry is reported as “no observeable effect”, the C5a production result was “inhibited” and the SC5b-9 production result is “inhibited”. Further, in the test with alternative pathway, the C3a production entry is reported as “no effect”, the C5a generation result was “dose-dependent inhibition” and the SC5b-9 generation entry is recorded as “dose-dependent inhibition”. Moreover, in the test on classical pathway, the C3a production entry is “neither of these peptides produced an effect”, the C5a production entry is “dose-dependent increase in the inhibition” and the SC5b-9 production entry is reported as “dose-dependent increase in the inhibition”.

As for SFNDLLWRWEWP [Peptide 7], at complement component C5, the “competition among phage clones and free peptides for binding to C5” value is reported as “significant competition”; the “specific binding” value was “specifically bound complement component C5”. For the same sequence, the inhibition of hemolysis result in test [1] is listed as “significant inhibition of hemolysis”. Moreover, in test [2], the C3a generation entry was “activated”, the C5a production result is “inhibited” and the SC5b-9 production entry was “inhibited”. Further, in the test with alternative pathway, the C3a production entry is reported as “activated”, the C5a generation entry is “inhibited” and the SC5b-9 generation entry is “inhibited”. Besides, in the test on classical pathway, the C3a production entry is “enhanced production”, the C5a production result is “inhibited” and the SC5b-9 production result is “inhibited”.

As to TQDNRWEFPLRV [Peptide 13], on complement component C5, the “competition among phage clones and free peptides for binding to C5” value was “significant competition”; the “specific binding” value was “specifically bound complement component C5”. In test [1], the “inhibitory activity in RBC hemolysis assay compared with parent peptide” value is “almost comparable activity” and the inhibition of hemolysis result is given as “significant inhibition of hemolysis”. In test [2], the C3a generation entry is listed as “no observeable effect”, the C5a production entry is “inhibited” and the SC5b-9 production entry is given as “inhibited”. Further, in the test on alternative pathway, the C3a production entry was “no effect”, the C5a generation entry was “dose-dependent inhibition” and the SC5b-9 generation result is reported as “dose-dependent inhibition”. In addition, in the test on classical pathway, the C3a production result is reported as “neither of these peptides produced an effect”, the C5a production result is recorded as “dose-dependent increase in the inhibition” and the SC5b-9 production entry is listed as “dose-dependent increase in the inhibition”.
